The source of these data is patent US9475842B2, “Hexadepsipeptide analogues as anticancer compounds” (PIRAMAL ENTERPRISES LIMITED, priority 2012, dated 2016).

Like-named read-outs stand apart in the source and are kept apart here.

Data set [1] relates to MCF-10A, a non-tumourigenic cell line. As to the kind of experiment: Monolayer assay (CCK-8 cytotoxicity), normal cells. It counts as cell-based. To be noted: Table 6. How it is done:
(§1) The assays were designed as in the reference, BMC Cancer, 2010, 10, 610, 1-11; the disclosure of which is incorporated by reference for the teaching of the assay.
(§2) Human tumour cell lines: Panc-1 (Pancreatic Cancer), HCT 116 (Colorectal Cancer), ACHN (Renal Cell Carcinoma), Calu-1 (Lung Carcinoma), MiaPaca2 (Pancreatic Cancer), FADU (Head and Neck Cancer), PC3 (prostate Cancer), G361 (Melanoma), MDA-MB435S (Melanoma), HeLa (Cervical Cancer) were grown in Minimal Essential Media with Eagle's Basal Salts (MEM-EBS) obtained from AMIMED (BioConcept-Switzerland). Tumour cell lines: MDA-MB231 (Breast Cancer), JURKAT (T cell leukaemia), H460 (Small Cell Lung Cancer) were cultured in RPMI 1640 (AMIMED, BioConcept, Switzerland) medium. All tumour cell lines were supplemented with 10% Foetal Bovine Serum (FBS) (GIBCO), 1% Penicillin/Streptomycin (Sigma) and 1% Anti-Anti (GIBCO) and grown in T-175 tissue culture flasks (Nunc). MCF-10A, a non-tumourigenic cell line, was cultured in Mammary Epithelial Basal Medium (MEBM) with all standard additions (Lonza, Catalog. No. CC-3150). All cells were grown in 5% CO2 incubator at 37° C. Cells were passaged at 80-90% confluence. Adherent cells were trypsinised using Trypsin-EDTA (Sigma) and maintained. All cell lines were purchased from ATCC (Rockville, Md., USA).
(§3) Compound of Formula (1a) [described in example 7] was dissolved in DMSO to give a required stock solution of 20 mM. Eight different concentrations of the compound of Formula (1a) were prepared by serial dilution of stock solution finally resulting in a (compared to the test concentration) 200-fold higher concentration. Compound of Formula (1a) was tested at the concentration of 0.0001 μM, 0.001 μM, 0.01 μM, 0.03 μM, 0.1 μM, 0.3 μM, 1 μM and 3 μM respectively. Each concentration was evaluated in triplicate.
(§4) Method for determination of IC50 of the compound of Formula (1a): • a) Different cancer/normal cells were seeded at a density of 3000 cells/200 μL well, in a tissue culture grade 96 well plate and allowed them to recover for 24 hrs in a humidified 5±0.2% CO2 incubator at 37±0.5° C. • b) After 24 hrs, 1 μL of 200× (200 times higher than required concentration is denoted as 200×) compound of Formula (1a), dissolved in DMSO, was added to the above tissue culture plate seeded with cancer/normal cells. The final concentration of DMSO was 0.5% in wells. DMSO was used as a vehicle control. • c) After 24 hrs the plate was removed from CO2 incubator and 5 μL of CCK-8 (Dojindo Molecular Technologies, Inc. USA, catalog, no. CK04-20) per well was added. • d) The plate was then placed at 37° C. for 2 hrs. • e) The absorbance was recorded at 450 nm. • f) The percent cytotoxicity was calculated using the following formula
(§5) The IC50 value was estimated by visual inspection of the concentration-effect curve. For calculation of mean IC50 values over the fourteen cell lines as tested, the geometric mean was selected.
(§6) The assays were designed as described above in example 16.
(§7) The IC50 value was estimated by visual inspection of the concentration-effect curve. For calculation of mean IC50 values over the six cell lines (PC3, MDA MB, HCT116, MCF7, MIAPaCa2, MCF10A) as tested, the geometric mean was selected.

Data set [2] deals with MDA-MB231 (Breast Cancer). As to the kind of experiment: Monolayer assay (CCK-8 cytotoxicity). It counts as cell-based, human. The note with it: MDA MB-231, Table 6, read-out: IC50 (μM) in different cancer cell lines: MDA MB-231. Here is the method: as §1, §2, §3, §4, §5, §6, §7
The subject of data set [3] is HCT 116 (Colorectal Cancer). As to the kind of experiment: Monolayer assay (CCK-8 cytotoxicity). It counts as cell-based, human. The note with it: HCT116, Table 6, read-out: IC50 (μM) in different cancer cell lines: HCT116. Here is the method:
as §1, §2, §3, §4, §5, §6, §7

In data set [4] the test system is PC3 (prostate Cancer). As to the kind of experiment: Monolayer assay (CCK-8 cytotoxicity). In kind it is cell-based, human. The note with it: PC3, Table 6, read-out: IC50 (μM) in different cancer cell lines: PC3. Here is the method: as §1, §2, §3, §4, §5, §6, §7
Data set [5] concerns MCF7. As to the kind of experiment: Monolayer assay (CCK-8 cytotoxicity). It counts as cell-based. To be noted: Table 6, read-out: IC50 (μM) in different cancer cell lines: MCF7. How it is done:
as §1, §4, §6, §7

The test system of data set [6] is different cancer cells. As to the kind of experiment: Monolayer assay, range over the cancer cell lines tested. In kind it is cell-based. The note with it: Homo sapiens; range over the cancer cell lines of Table 6. Here is the method: as §1, §2, §3, §4, §5, §6, §7
Data set [7] in a line: Solubility (physical properties). In kind it is physicochemical.
The mark [8] stands for this setting: MCF10A normal cells, read-out: IC50 (μM) in different cancer cell lines: MCF10A.
Where [9] appears, read: read-out: IC50 (μM) in different cancer cell lines: MCF10A, MCF10A normal cells.
Where [10] appears, read: Homo sapiens, MCF-10A, read-out: IC50 (μM) in different cancer cell lines: MCF10A, MCF10A normal cells.

In general, IC50 refers to the concentration that inhibits the measured activity by half. With `CON1C(=O)C2CCCNN2C(=O)C(NC(=O)C(C)(O)C2(O)CCC(CC(C)C)C(C)O2)C(C(C)C)OC(=O)C(C)N(O)C(=O)C2CCCNN2C(=O)CNC(=O)C1C` (stereo not shown) [Compound 1, 2-hydroxy-N-(18-hydroxy-22-isopropyl-6-methoxy-7,19-dimethyl-5,8,11,17,20,24-hexaoxotetracosahydrodipyridazino[6,1-f:6′,1′-o][1,4,7,10,13,16]oxapentaazacyclononadecin-23-yl)-2-(2-hydroxy-5-isobutyl-6-methyltetrahydro-2H-pyran-2-yl) propanamide], the IC50 in data set [1] (setting [8]) turned out to be 0.247 µM; in data set [2], 0.293 µM; in data set [3], 0.287 µM; in data set [4], 0.502 µM; in data set [5] it was 0.355 µM.

Turning to `CON1C(=O)C2CCCNN2C(=O)C(NC(=O)C(C)(O)C2(O)CCC(CC(C)C)C(C)O2)C(C(C)C)OC(=O)C(C)N(OC)C(=O)C2CCCNN2C(=O)CNC(=O)C1C` (stereo not shown) [Compound 2, 2-hydroxy-2-(2-hydroxy-5-isobutyl-6-methyltetrahydro-2H-pyran-2-yl)-N-(22-isopropyl-6,18-dimethoxy-7,19-dimethyl-5,8,11,17,20,24-hexaoxotetracosahydrodipyridazino[6,1-f:6′,1′-o][1,4,7,10,13,16]oxapentaazacyclononadecin-23-yl)propanamide], the 50% inhibitory concentration (IC50) in data set [1] (setting [9]) is 0.691 µM; in data set [2] (Homo sapiens) it was 0.8 µM; in data set [3] (Homo sapiens, HCT-116), 0.635 µM; in data set [4] (Homo sapiens), 1.04 µM; in data set [5] (Homo sapiens), 0.826 µM; in data set [6] it was 9 to 1040 nM.

For the compound `CC(C)CC1CCC(O)(C(C)(O)C(=O)NC2C(=O)N3NCCCC3C(=O)N(OC(=O)CCNC(=O)OCc3ccccc3)C(C)C(=O)NCC(=O)N3NCCCC3C(=O)N(O)C(C)C(=O)OC2C(C)C)OC1C` (stereo not shown) [Compound 3, 18-hydroxy-23-(2-hydroxy-2-(2-hydroxy-5-isobutyl-6-methyltetrahydro-2H-pyran-2-yl)propanamido)-22-isopropyl-7,19-dimethyl-5,8,11,17,20,24-hexa oxoicosahydrodipyridazino[6,1-f:6′,1′-o][1,4,7,10,13,16]oxapentaazacyclononadecin-6(7H,13H,22H)-yl 3-(((benzyloxy)carbonyl)amino)propanoate], the IC50 in data set [1] (setting [9]) was 0.031 µM; in data set [2] (Homo sapiens) it was 0.03 µM; in data set [3] (Homo sapiens, HCT-116), 0.009 µM; in data set [4] (Homo sapiens), 0.044 µM; in data set [5] (Homo sapiens), 0.025 µM; in data set [6], 9 to 1040 nM.

Turning to `CC(C)CC1CCC(O)(C(C)(O)C(=O)NC2C(=O)N3NCCCC3C(=O)N(OC(=O)CCN)C(C)C(=O)NCC(=O)N3NCCCC3C(=O)N(O)C(C)C(=O)OC2C(C)C)OC1C` (stereo not shown) [Compound 4, 18-hydroxy-23-(2-hydroxy-2-(2-hydroxy-5-isobutyl-6-methyltetra hydro-2H-pyran-2-yl)propanamido)-22-isopropyl-7,19-dimethyl-5,8,11,17,20,24-hexaoxo icosahydrodipyridazino[6,1-f:6′,1′-o][1,4,7,10,13,16]oxapentaazacyclononadecin-6(7H,13H,22H)-yl 3-aminopropanoate], the IC50 in data set [1] (setting [8]) is < 0.3 µM; in data set [2], 0.2 µM; in data set [3] it was 0.17 µM; in data set [5], 0.03 µM.

As to `CC(C)CC1CCC(O)(C(C)(O)C(=O)NC2C(=O)N3N=CCCC3C(=O)N(O)C(C)C(=O)NCC(=O)N3N=CCCC3C(=O)N(O)C(C)C(=O)OC2C(C)C)OC1C` (stereo not shown) [Compound 5, N-(6,18-dihydroxy-22-isopropyl-7,19-dimethyl-5,8,11,17,20,24-hexaoxo-3,4,4a,5,6,7,8,9,10,11,15,16,16a,17,18,19,20,22,23,24-icosahydrodipyridazino[6,1-f:6′,1′-o][1,4,7,10,13,16]oxapentaazacyclononadecin-23-yl)-2-hydroxy-2-(2-hydroxy-5-isobutyl-6-methyltetrahydro-2H-pyran-2-yl)propanamide], the IC50 is 0.01 to 0.83 µM in data set [1] (setting [10]); < 0.01 µM in data set [1] (setting [9]); 0.012 µM in data set [2] (Homo sapiens); < 0.01 µM in data set [3] (Homo sapiens, HCT-116); 0.018 µM in data set [5] (Homo sapiens); 9 to 1040 nM in data set [6].

Regarding `CC(C)CC1CCC(O)(C(C)(O)C(=O)NC2C(=O)N3NCCCC3C(=O)NC(C)C(=O)NCC(=O)N3NCCCC3C(=O)NC(C)C(=O)OC2C(C)C)OC1C` (stereo not shown) [Compound 6, 2-hydroxy-2-(2-hydroxy-5-isobutyl-6-methyltetrahydro-2H-pyran-2-yl)-N-(22-isopropyl-7,19-dimethyl-5,8,11,17,20,24-hexaoxotetracosahydrodipyridazino[6,1-f:6′,1′-o][1,4,7,10,13,16]oxapentaazacyclononadecin-23-yl)propanamide], the IC50 was 0.819 µM in data set [1] (setting [9]); 0.343 µM in data set [2] (Homo sapiens); 0.284 µM in data set [3] (Homo sapiens, HCT-116); 0.998 µM in data set [4] (Homo sapiens); 0.977 µM in data set [5] (Homo sapiens); 9 to 1040 nM in data set [6].

As to `CC(=O)ON1C(=O)C2CCCNN2C(=O)C(NC(=O)C(C)(O)C2(O)CCC(CC(C)C)C(C)O2)C(C(C)C)OC(=O)C(C)N(O)C(=O)C2CCCNN2C(=O)CNC(=O)C1C` (stereo not shown) [Compound 7, 18-hydroxy-23-(2-hydroxy-2-(2-hydroxy-5-isobutyl-6-methyltetra hydro-2H-pyran-2-yl)propanamido)-22-isopropyl-7,19-dimethyl-5,8,11,17,20,24-hexaoxo icosahydrodipyridazino[6,1-f:6′,1′-o[]1,4,7,10,13,16]oxapentaazacyclononadecin-6(7H,13H,22H)-yl acetate], the IC50 came out at 0.83 µM in data set [1] (setting [8]); 0.32 µM in data set [2]; 0.257 µM in data set [3]; 0.36 µM in data set [4]; 0.843 µM in data set [5].

Take `CC(C)CC1CCC(O)(C(C)(O)C(=O)NC2C(=O)N3N=CCCC3C(=O)N(O)C(C)C(=O)NCC(=O)N3NCCCC3C(=O)N(O)C(C)C(=O)OC2C(C)C)OC1C` (stereo not shown) [Formula (1b), N-(6,18-dihydroxy-22-isopropyl-7,19-dimethyl-5,8,11,17,20,24-hexaoxo-3,4,4a,5,6,7,8,9, 10,11,13,14,15, 16,16a, 17,18,19,20,22,23,24-docosahydrodipyridazino[6,1-f:6′,1′-o][1,4,7,10, 13,16]oxapentaazacyclononadecin-23-yl)-2-hydroxy-2-(2-hydroxy-5-isobutyl-6-methyltetra hydro-2H-pyran-2-yl)propanamide]: the 50% inhibitory concentration (IC50) was 0.03 µM in data set [1] (setting [10]); 0.018 µM in data set [2] (Homo sapiens); 0.032 µM in data set [3] (Homo sapiens, HCT-116); 0.035 µM in data set [4] (Homo sapiens); 0.071 µM in data set [5] (Homo sapiens); 18 to 71 nM in data set [6]. Also, the “Solubility in organic solvents” value in data set [7] (chloroform, ethyl acetate and methanol) was “Soluble in chloroform, ethyl acetate and methanol and”. Besides, the Solubility in water entry in data set [7] (water) was “insoluble in water”.
